US20260055083A1, “APOL1 INHIBITORS AND METHODS OF USE” (Maze Therapeutics, Inc., priority 2022, published 2026)

Experiments:
APOL1 G2 [1] = biological target: T1, APOL1 G2 (Homo sapiens, UniProt O14791, DEL388-389); test: APOL1 G2 FLIPR calcium influx assay (HEK T-REx/GCaMP6f/APOL1 G2 K6.3 cells); type: cell-based; conditions: HEK293 clone expressing GCaMP6f, doxycycline-induced APOL1 G2; prevention of calcium influx; geometric mean of at least 2 assay runs
T1 construct: expressed in transfected cells; host or cells: HEK293/T-REx APOL1 G2 clone #2, doxycycline-inducible
T1 sequence (O14791 with tags, fused parts or gaps DEL388-389): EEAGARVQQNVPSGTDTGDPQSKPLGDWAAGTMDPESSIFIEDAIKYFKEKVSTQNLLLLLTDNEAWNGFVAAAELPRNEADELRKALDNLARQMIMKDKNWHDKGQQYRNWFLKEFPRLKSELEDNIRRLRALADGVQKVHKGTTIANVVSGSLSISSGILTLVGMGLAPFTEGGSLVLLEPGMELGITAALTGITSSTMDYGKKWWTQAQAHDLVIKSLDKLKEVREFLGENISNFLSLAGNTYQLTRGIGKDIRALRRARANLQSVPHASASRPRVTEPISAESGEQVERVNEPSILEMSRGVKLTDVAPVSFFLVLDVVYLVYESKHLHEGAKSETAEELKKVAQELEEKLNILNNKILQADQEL
In short: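 Cells express GCaMP6f stably and APOL1 G2 after a 6 h doxycycline induction. Duplicate 8-point dilutions sit 10 min at room temperature in Ca2+-free Tyrode's (pH 7.4), then Ca2+ is injected to 5 mM final and the FLIPR signal recorded. AC50s are geometric means across ≥2 days.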

APOL1 G2 [2] = biological target: T1, APOL1 G2; test: APOL1 G2 HEK293 rescue of cell death caused by overexpression of APOL1 (CellTiter-Glo); type: cell-based; conditions: HEK293/T-REx APOL1 G2 clone #2, doxycycline induction, 17 hours, CellTiter-Glo luminescence; reversal of cell death; geometric mean of at least 2 assay runs
In short: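 Viability read by CellTiter-Glo luminescence after 17 h, 37 °C, in HEK293/T-REx cells expressing APOL1 G2 on 6 ng/mL doxycycline, 5,000 cells/well. Compounds tested as duplicate 8-point, 3-fold dilutions, 0.5% DMSO final; four-parameter logistic EC50, usually geometric mean of ≥2 days.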

Molecule CC(Cc1cc(Cl)cc(C#N)c1)N1C[C@@H](COc2ccc(S(C)(=O)=O)cc2)[C@H](C)C1 (single isomer, unassigned) [Compound 19, 3-chloro-5-[(2R or 2S)-2-[(3S,4S)-3-[(4-methanesulfonylphenoxy)methyl]-4-methylpyrrolidin-1-yl]propyl]benzonitrile] has an AC50 (APOL1 G2 [1]) of 0.444 µM and an EC50 (APOL1 G2 [2]) of 0.64 µM.
In the case of Cc1cc(OC[C@@H]2CN(CCc3cc(Cl)cc(C#N)c3)CCN2)ccc1S(C)(=O)=O [Compound 112, 3-chloro-5-{2-[(3S)-3-[(4-methanesulfonyl-3-methylphenoxy)methyl]piperazin-1-yl]ethyl}benzonitrile], the AC50 (APOL1 G2 [1]) is reported as 0.409 µM and the EC50 (APOL1 G2 [2]) is reported as 0.296 µM.
C[C@@H]1C[C@H](COc2ccc(S(=O)(=O)CCCS(C)(=O)=O)cc2)CN1C1CCc2c(C#N)cc(Cl)cc2C1 (single isomer, unassigned) [Compound 45, (6S or 6R)-3-chloro-6-[(2R,4S)-4-{[4-(3-methanesulfonylpropanesulfonyl)phenoxy]methyl}-2-methylpyrrolidin-1-yl]-5,6,7,8-tetrahydronaphthalene-1-carbonitrile] gave an AC50 (APOL1 G2 [1]) of 0.998 µM and an EC50 (APOL1 G2 [2]) of 0.3 µM.
With Cc1cc(OC[C@H]2C[C@@H](C)N(CC(O)c3cccc(C#N)c3)C2)cnc1S(C)(=O)=O (single isomer, unassigned) [Compound 96, 3-[(1S or 1R)-1-hydroxy-2-[(2R,4S)-4-{[(6-methanesulfonyl-5-methylpyridin-3-yl)oxy]methyl}-2-methylpyrrolidin-1-yl]ethyl]benzonitrile] the AC50 (APOL1 G2 [1]) was 0.188 µM and the EC50 (APOL1 G2 [2]) was 0.0277 µM.
For C[C@@H]1C[C@H](COc2ccc(S(C)(=O)=O)nc2)CN1CC(O)c1cccc(C#N)c1 (single isomer, unassigned) [Compound 94, 3-[(1S or 1R)-1-hydroxy-2-[(2R,4S)-4-{[(6-methanesulfonylpyridin-3-yl)oxy]methyl}-2-methylpyrrolidin-1-yl]ethyl]benzonitrile], the AC50 (APOL1 G2 [1]) was 0.614 µM and the EC50 (APOL1 G2 [2]) was 0.103 µM.
CS(=O)(=O)c1ccc(OC[C@H]2CN(CCc3cccc(Cl)c3)C[C@@H]2CO)cc1 [Compound 22, [(3R,4R)-1-[2-(3-chlorophenyl)ethyl]-4-[(4-methanesulfonylphenoxy)methyl]pyrrolidin-3-yl]methanol] gave an AC50 (APOL1 G2 [1]) of 1.56 µM and an EC50 (APOL1 G2 [2]) greater than 18.8 µM.
Molecule C[C@@H]1CN(C(CO)Cc2cccc(Cl)c2)C[C@H]1COc1ccc(S(C)(=O)=O)cc1 (single isomer, unassigned) [Compound 117, (2S or 2R)-3-(3-chlorophenyl)-2-[(3S,4S)-3-[(4-methanesulfonylphenoxy)methyl]-4-methylpyrrolidin-1-yl]propan-1-ol] has an AC50 (APOL1 G2 [1]) of 0.483 µM and an EC50 (APOL1 G2 [2]) of 0.755 µM.
C[C@@H]1CN(CC(CO)c2cc(Cl)cc(C#N)c2)C[C@H]1COc1ccc(S(C)(=O)=O)cc1 (single isomer, unassigned) [Compound 127, 3-chloro-5-[(2R or 2S)-1-hydroxy-3-[(3S,4S)-3-[(4-methanesulfonylphenoxy)methyl]-4-methylpyrrolidin-1-yl]propan-2-yl]benzonitrile] showed an AC50 (APOL1 G2 [1]) of 2.22 µM and an EC50 (APOL1 G2 [2]) greater than 10 µM.
C[C@@H]1C[C@H](COc2ccc(S(=O)(=O)CCCS(C)(=O)=O)cc2)CN1C1CCc2c(C#N)cccc2C1 (single isomer, unassigned) [Compound 41, (6S or 6R)-6-[(2R,4S)-4-{[4-(3-methanesulfonylpropanesulfonyl)phenoxy]methyl}-2-methylpyrrolidin-1-yl]-5,6,7,8-tetrahydronaphthalene-1-carbonitrile] was tested, and the AC50 (APOL1 G2 [1]) was 1.18 µM and the EC50 (APOL1 G2 [2]) was 0.0628 µM.
CC(C(O)c1cc(Cl)cc(C#N)c1)N1C[C@@H](COc2ccc(S(C)(=O)=O)cc2)C[C@H]1C (single isomer, unassigned) [Compound 98, 3-chloro-5-[(1R,2S or 1S,2R or 1S,2S or 1R,2R)-1-hydroxy-2-[(2R,4S)-4-[(4-methanesulfonylphenoxy)methyl]-2-methylpyrrolidin-1-yl]propyl]benzonitrile] was tested, and the AC50 (APOL1 G2 [1]) was 2.84 µM and the EC50 (APOL1 G2 [2]) was greater than 10 µM.
C[C@@H]1C[C@H](COc2ccc(S(C)(=O)=O)cc2)CN1C1CCc2c(C#N)cc(Cl)cc2C1 (single isomer, unassigned) [Compound 8, (6R or 6S)-3-chloro-6-[(2R,4S)-4-[(4-methanesulfonylphenoxy)methyl]-2-methylpyrrolidin-1-yl]-5,6,7,8-tetrahydronaphthalene-1-carbonitrile] was tested, and the AC50 (APOL1 G2 [1]) was 1.07 µM and the EC50 (APOL1 G2 [2]) was 0.15 µM.
Work on C[C@@H]1CN(C2CCc3ccc(Cl)cc3C2)C[C@H]1COc1ccc(S(C)(=O)=O)cc1 (single isomer, unassigned) [Compound 16, (3S,4S)-1-[(2R or 2S)-7-chloro-1,2,3,4-tetrahydronaphthalen-2-yl]-3-[(4-methanesulfonylphenoxy)methyl]-4-methylpyrrolidine] yielded an AC50 (APOL1 G2 [1]) of 1.08 µM and an EC50 (APOL1 G2 [2]) of 0.712 µM.
C[C@@H]1C[C@H](COc2ccc(S(C)(=O)=O)nc2)CN1CCc1cccc(C#N)c1 [Compound 64, 3-{2-[(2R,4S)-4-{[(6-methanesulfonylpyridin-3-yl)oxy]methyl}-2-methylpyrrolidin-1-yl]ethyl}benzonitrile] showed an AC50 (APOL1 G2 [1]) of 0.287 µM and an EC50 (APOL1 G2 [2]) of 0.0509 µM.
With CS(=O)(=O)c1ccc(OC[C@@H]2CN(C(CO)Cc3cccc(Cl)c3)CCN2)cc1 (single isomer, unassigned) [Compound 119, (2S or 2R)-3-(3-chlorophenyl)-2-[(3S)-3-[(4-methanesulfonylphenoxy)methyl]piperazin-1-yl]propan-1-ol] the AC50 (APOL1 G2 [1]) was 2.33 µM and the EC50 (APOL1 G2 [2]) was 0.633 µM.
C[C@@H]1C[C@H](COc2ccc(S(C)(=O)=O)cc2)CN1C1CCc2c(C#N)cccc2C1 (single isomer, unassigned) [Compound 135, (6S or 6S)-6-[(2R,4S)-4-[(4-methanesulfonylphenoxy)methyl]-2-methylpyrrolidin-1-yl]-5,6,7,8-tetrahydronaphthalene-1-carbonitrile] showed an AC50 (APOL1 G2 [1]) of 0.576 µM and an EC50 (APOL1 G2 [2]) of 0.0842 µM.
Work on C[C@@H]1C[C@H](COc2ccc(S(=O)(=O)CCS(C)(=O)=O)cc2)CN1C1CCc2ccc(C#N)cc2C1 (single isomer, unassigned) [Compound 31] yielded an AC50 (APOL1 G2 [1]) of 0.773 µM and an EC50 (APOL1 G2 [2]) of 0.234 µM.
In the case of C[C@@H]1CN(CCc2cc(C#N)cc(C#N)c2)C[C@H]1COc1ccc(S(C)(=O)=O)nc1 [Compound 74, 5-{2-[(3S,4S)-3-{[(6-methanesulfonylpyridin-3-yl)oxy]methyl}-4-methylpyrrolidin-1-yl]ethyl}benzene-1,3-dicarbonitrile], the AC50 (APOL1 G2 [1]) is reported as 0.479 µM and the EC50 (APOL1 G2 [2]) is reported as 0.665 µM.
In the case of CC(Cc1cc(Cl)cc(C#N)c1)N1C[C@@H](COc2ccc(S(C)(=O)=O)cc2)[C@H](C)C1 (stereo partly drawn) [Compound 17, 3-chloro-5-[2-[(3S,4S)-3-[(4-methanesulfonylphenoxy)methyl]-4-methylpyrrolidin-1-yl]propyl]benzonitrile], the AC50 (APOL1 G2 [1]) is reported as 0.38 µM and the EC50 (APOL1 G2 [2]) is reported as 0.527 µM.
Molecule C[C@@H]1C[C@H](COc2ccc(S(C)(=O)=O)cc2)CN1C1CCc2ccc(Cl)cc2C1 (single isomer, unassigned) [Compound 5, (2R,4S)-1-[(2S or 2R)-7-chloro-1,2,3,4-tetrahydronaphthalen-2-yl]-4-[(4-methanesulfonylphenoxy)methyl]-2-methylpyrrolidine] has an AC50 (APOL1 G2 [1]) of 0.488 µM and an EC50 (APOL1 G2 [2]) of 0.0476 µM.
With CS(=O)(=O)c1ccc(OC[C@@H]2CN(CCc3cccc(C#N)c3)C[C@H]2CO)cc1 [Compound 25, 3-{2-[(3S,4S)-3-(hydroxymethyl)-4-[(4-methanesulfonylphenoxy)methyl]pyrrolidin-1-yl]ethyl}benzonitrile] the AC50 (APOL1 G2 [1]) was 0.343 µM and the EC50 (APOL1 G2 [2]) was 1.01 µM.
Molecule CS(=O)(=O)C1(c2ccc(OC[C@@H]3CN(CCc4cccc(Cl)c4)CCN3)cc2)COC1 [Compound 107, (3S)-1-[2-(3-chlorophenyl)ethyl]-3-{[4-(3-methanesulfonyloxetan-3-yl)phenoxy]methyl}piperazine] has an AC50 (APOL1 G2 [1]) of less than 0.0866 µM and an EC50 (APOL1 G2 [2]) of 0.245 µM.
In the case of C[C@@H]1CN(C(CO)Cc2cc(Cl)cc(C#N)c2)C[C@H]1COc1ccc(S(C)(=O)=O)cc1 (stereo partly drawn) [Compound 120, 3-chloro-5-[3-hydroxy-2-[(3S,4S)-3-[(4-methanesulfonylphenoxy)methyl]-4-methylpyrrolidin-1-yl]propyl]benzonitrile], the AC50 (APOL1 G2 [1]) is reported as 0.48 µM and the EC50 (APOL1 G2 [2]) is reported as 1.04 µM.
In the case of C[C@@H]1CN(C(CO)Cc2cccc(Cl)c2)C[C@H]1COc1ccc(S(C)(=O)=O)cc1 (single isomer, unassigned) [Compound 116, (2R or 2S)-3-(3-chlorophenyl)-2-[(3S,4S)-3-[(4-methanesulfonylphenoxy)methyl]-4-methylpyrrolidin-1-yl]propan-1-ol], the AC50 (APOL1 G2 [1]) is reported as 1.7 µM and the EC50 (APOL1 G2 [2]) is reported as greater than 10 µM.
C[C@@H]1CN(CCc2cc(Cl)cc(C#N)c2)C[C@H]1COc1ccc(C2(S(C)(=O)=O)COC2)cc1 [Compound 78, 3-chloro-5-{2-[(3S,4S)-3-{[4-(3-methanesulfonyloxetan-3-yl)phenoxy]methyl}-4-methylpyrrolidin-1-yl]ethyl}benzonitrile] gave an AC50 (APOL1 G2 [1]) of 0.114 µM and an EC50 (APOL1 G2 [2]) of 0.0258 µM.
